Measured values reported in paper PMC4713719 (European Journal of Clinical Pharmacology, 2015).
Like-named read-outs stand apart in the source and are kept apart here.

Columns and labels:
[1] = tested on: patients with relapsed and refractory multiple myeloma; assay: Grade 3 or 4 adverse events and MTD in the B2207 trial; assay type: in vivo, human
Text: The two combination studies, B2207 and PANORAMA-1, reported efficacy data in patients with relapsed and refractory multiple myeloma. In the current analysis, exposure–efficacy relationship was explored using the efficacy data (ORR based on IMWG criteria) from the B2207 trial.

[2] = tested on: patients with multiple myeloma; settings: cited from earlier work
[3] = read-out: Projected Cmax; 20 mg oral dose used in the B2207 study
[4] = Panobinostat plasma PK in the B2207 phase 1b trial (LC-MS/MS, non-compartmental); settings: B2207, PAN + BTZ + Dex vs historical single-agent trials
Experimental: In the dose escalation part, PK samples were collected on cycle 1, day 8, and cycle 1, day 15 at pre-dose, and various intervals post-dose up to 48 h.

[5] = Panobinostat plasma PK in the PANORAMA-1 phase 3 trial (Japan subset); assay type: in vivo, human; settings: PANORAMA-1 cycle 1 day 8, PAN + BTZ + Dex, N = 12
Experimental: Each phase was of 24 weeks duration with treatment phase 1 consisting of eight, 3-week cycles and treatment phase 2 consisting of four, 6-week cycles.
In this study, plasma samples for panobinostat and bortezomib were collected in a subset of Asian patients. Blood samples were taken at scheduled time points (cycle 1, day 1, and cycle 1 day 8 at pre-dose and at 0.5, 1, 2, 3, 4, 8, 24, and 48 h post-dose) for PK analysis.

[6] = 20 mg PAN single agent (tiw qw), multiple oral dose, N = 32, cited from earlier work
patients = tested on: patients; parameters: method as in historical single-agent studies; settings: 20 mg PAN (tiw qw) single agent, pooled, N = 309, ref historical single-agent studies, cited from earlier work
[7] = cited from earlier work
[8] = cited from earlier work; remark: listed apart in the source
CYP3A = settings: strong CYP3A inhibitor, cancer patients; cited from earlier work
CYP2D6 = settings: sensitive CYP2D6 substrate, cancer patients; cited from earlier work
[9] = patients with solid tumors; cited from earlier work
[10] = tested on: class I, II, and IV histone deacetylases; settings: cited from earlier work
[11] = parameters: method as in unpublished data; settings: 20 mg panobinostat + 25 mg lenalidomide + 40 mg dexamethasone (day 1 through day 4); ref unpublished data; cited from earlier work
[12] = tested on: patients with advanced hematologic malignancies; settings: panobinostat alone; cited from earlier work
[13] = human, plasma, oral, geometric mean (% CV)

**Q.** With `CC(C)C[C@H](NC(=O)[C@H](Cc1ccccc1)NC(=O)c1cnccn1)B(O)O` [bortezomib] as the molecule, how does the MTD ([1]; B2207, twice-weekly (biw), in combination with panobinostat) read?
**A.** 1.3 mg/m^2

**Q.** And the “Grade ≥3 diarrhea” value ([2]; 1.3 mg/m^2 IV bortezomib)?
**A.** 5%

**Q.** What about the “Grade ≥3 diarrhea” value ([2]; 1.3 mg/m^2 SC bortezomib) of the same molecule?
**A.** 2%

**Q.** For `C[C@@H]1C[C@H]2[C@@H]3CCC4=CC(=O)C=C[C@]4(C)[C@@]3(F)[C@@H](O)C[C@]2(C)[C@@]1(O)C(=O)CO` [dexamethasone], which Cmax [3] is on record?
**A.** ~30 nM

**Q.** What does the source list for `Cc1[nH]c2ccccc2c1CCNCc1ccc(/C=C/C(=O)NO)cc1` [panobinostat, Panobinostat]?
**A.** Lower panobinostat exposure at MTD in combination vs single-agent trials [4]: ~50%; AUC0-24 ([5]; geometric mean (% CV)): 95.2 (28.4) ng h/mL; Cmax [5, 13]: 15.3 ng/mL; half-life [5, 13]: 16.7 h; AUC(0-t) ([5]; human, plasma, oral, geometric mean (% CV), read-out: AUC0-24): 95 ng·h/mL; Vd/F ([5]; human, plasma, oral, geometric mean (% CV), read-out: Vz/F): 3550 L; Tmax ([5]; human, plasma, oral, median (range)): 2.02 h; MTD ([1]; B2207, tiw, in combination with bortezomib): 20 mg; AUC0-24 ([6]; geometric mean (% CV)): 139 (71) ng h/mL; Cmax ([6]; geometric mean (% CV)): 21.6 (83) ng/mL; T1/2 ([6]; geometric mean (% CV)): 16.9 (33) h; Tmax ([6]; median (range)): 1 (0.5–8) h; Grade 3 or 4 anemia (patients): 29 (9) %; Grade 3 or 4 diarrhea (patients): about 3%; Grade 3 or 4 fatigue (patients): 13 (4) %; Grade 3 or 4 nausea (patients): 6 (2) %; Grade 3 or 4 neutropenia (patients): 42 (14) %; Grade 3 or 4 thrombocytopenia (patients): about 21%; Grade 3 or 4 vomiting (patients): 4 (1) %; Grade 3 or 4 diarrhea (patients; listed as PAN): 10 (3) %; Grade 3 or 4 thrombocytopenia (patients; listed as PAN): 66 (21) %; Fraction of the radiolabeled dose recovered in the feces [7]: 44 to 77%; Fraction of the radiolabeled dose recovered in the urine [7]: 29 to 51%; Number of metabolites formed [7]: over 70; Unchanged panobinostat in the feces, % of the administered dose [7]: < 3.5%; Effective half-life (T1/2) ([7]; single agent, based on the rate of accumulation): approximately 16 h; Median Tmax ([7]; single agent, oral administration): about 2 h; Accumulation ([7]; single-agent trial): approximately 1.1 fold; Dose linearity of pharmacokinetics ([7]; tested dose range between 10 and 30 mg): approximately linear; Steady state reached ([7]; thrice-weekly (tiw) dosing schedule): after the third dose; Effect of fed or fasting state on oral bioavailability [8]: marginally affected; Increase of panobinostat systemic exposure by ketoconazole (CYP3A): 80%; Increase of dextromethorphan systemic exposure by panobinostat (CYP2D6): 60%; Effect of mild, moderate, or severe renal impairment on plasma exposure [9]: did not alter the plasma exposure; Activity against histone deacetylases [10]: low nanomolar activity; Decrease in PAN exposure compared to historical single-agent data [11]: approximately 60%; Grade ≥3 thrombocytopenia [12]: 55%
